Read-outs that look alike come from different tables or passages of the source.

In the assay the target is T1, BRM (Homo sapiens, UniProt P51531).
T1 construct: In-Cell Western Screen of BRM Degradation in SW1573 Cells; endogenous in cells; host or cells: SW1573
Nature of the assay: In-cell Western screen of BRM degradation in SW1573 cells (Dmax and DC50). The class given is cell-based. The gist of the method:
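Overnight compound treatment (18-20 h, final DMSO 0.1%) of SW1573 cells in DMEM with 10% FBS precedes fixation and in-cell Western staining with 800/680 nm dye-labelled secondaries. Plate images give DC50 and maximal degradation.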

Setting [1] is: SW1573, % degraded, when tested at the top concentration of between 0.3 and 10 μM, read-out: BRM Dmax (%).
Setting [2] is: degradation of BRM, read-out: BRM DC50.
[3] abbreviates: BRM degradation, SW1573 cells, read-out: DC50.
The mark [4] stands for this setting: BRM degradation, SW1573 cells, read-out: Dmax (% degraded).
Where [5] appears, read: BRM degradation, SW1573 cells, tested at the top concentration of between 0.3 and 10 μM, read-out: Dmax (%) (% degraded).

T1 sequence (P51531 whole entry): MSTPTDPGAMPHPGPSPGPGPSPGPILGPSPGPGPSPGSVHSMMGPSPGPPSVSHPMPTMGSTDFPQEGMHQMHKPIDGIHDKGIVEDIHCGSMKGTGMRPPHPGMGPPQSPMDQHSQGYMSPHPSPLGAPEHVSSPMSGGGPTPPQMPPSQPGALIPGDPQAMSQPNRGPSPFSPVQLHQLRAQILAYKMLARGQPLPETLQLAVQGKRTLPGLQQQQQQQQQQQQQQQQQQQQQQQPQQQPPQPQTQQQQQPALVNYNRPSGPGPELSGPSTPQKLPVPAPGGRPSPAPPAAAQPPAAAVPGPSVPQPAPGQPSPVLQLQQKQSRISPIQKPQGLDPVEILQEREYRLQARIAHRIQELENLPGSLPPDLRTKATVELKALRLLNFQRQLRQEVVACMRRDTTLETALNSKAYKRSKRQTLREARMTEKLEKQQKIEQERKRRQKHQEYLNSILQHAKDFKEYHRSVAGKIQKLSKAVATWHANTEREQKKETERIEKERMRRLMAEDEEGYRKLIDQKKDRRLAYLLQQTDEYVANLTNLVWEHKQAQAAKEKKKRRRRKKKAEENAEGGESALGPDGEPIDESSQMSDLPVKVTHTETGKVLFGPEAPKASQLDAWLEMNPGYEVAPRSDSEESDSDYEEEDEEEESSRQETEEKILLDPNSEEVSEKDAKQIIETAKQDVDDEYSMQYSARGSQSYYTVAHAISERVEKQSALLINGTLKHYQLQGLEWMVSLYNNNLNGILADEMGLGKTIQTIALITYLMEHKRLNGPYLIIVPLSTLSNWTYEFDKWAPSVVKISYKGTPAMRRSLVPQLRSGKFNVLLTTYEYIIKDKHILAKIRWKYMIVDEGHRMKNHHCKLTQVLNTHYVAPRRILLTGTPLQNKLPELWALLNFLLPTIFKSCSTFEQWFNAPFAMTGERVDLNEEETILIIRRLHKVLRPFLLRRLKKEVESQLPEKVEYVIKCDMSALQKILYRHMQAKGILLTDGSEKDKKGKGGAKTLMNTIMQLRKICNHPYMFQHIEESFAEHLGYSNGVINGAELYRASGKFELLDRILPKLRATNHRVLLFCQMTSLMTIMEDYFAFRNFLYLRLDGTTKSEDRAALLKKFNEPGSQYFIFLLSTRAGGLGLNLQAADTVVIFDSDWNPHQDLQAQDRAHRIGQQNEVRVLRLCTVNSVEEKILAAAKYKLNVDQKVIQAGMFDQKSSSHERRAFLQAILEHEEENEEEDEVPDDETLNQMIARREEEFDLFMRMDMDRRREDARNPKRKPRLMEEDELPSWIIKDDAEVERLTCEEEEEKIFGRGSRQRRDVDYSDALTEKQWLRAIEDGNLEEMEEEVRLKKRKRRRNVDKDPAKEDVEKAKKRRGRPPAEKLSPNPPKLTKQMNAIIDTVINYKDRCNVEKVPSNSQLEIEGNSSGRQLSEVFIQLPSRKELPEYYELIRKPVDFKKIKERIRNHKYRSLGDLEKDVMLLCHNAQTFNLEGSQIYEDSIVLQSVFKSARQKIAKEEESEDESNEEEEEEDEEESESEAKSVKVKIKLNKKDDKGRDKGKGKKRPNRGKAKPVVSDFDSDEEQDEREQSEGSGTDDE

As for `Cc1ncsc1-c1ccc([C@H](C)NC(=O)[C@@H]2C[C@@H](O)CN2C(=O)C(c2cc(O[C@H]3C[C@H](N4CCC(O[C@H]5C[C@H](Oc6cc(N7C8CCC7CN(c7cc(-c9ccccc9O)nnc7N)C8)ccn6)C5)CC4)C3)no2)C(C)C)cc1` (stereo partly drawn) [compound 411, (2S,4R)-1-(2-(3-((1R,3S)-3-(4-((1r,3R)-3-((4-(3-(3-amino-6-(2-hydroxyphenyl)pyridazin-4-yl)-3,8-diazabicyclo[3.2.1]octan-8-yl)pyridin-2-yl)oxy)cyclobutoxy)piperidin-1-yl)cyclobutoxy)isoxazol-5-yl)-3-methylbutanoyl)-4-hydroxy-N-((S)-1-(4-(4-methylthiazol-5-yl)phenyl)ethyl)pyrrolidine-2-carboxamide], the Dmax under setting [1] was above 75%. Besides, the 50% degradation concentration (DC50) under setting [2] was below 2.5 nM.

Turning to `Cc1ncsc1-c1ccc(CNC(=O)[C@@H]2C[C@@H](O)CN2C(=O)[C@H](c2cc(CCCOCCOCCOCCOCCn3cc(-c4cc(-c5ccccc5O)nnc4N)cn3)no2)C(C)C)cc1` [compound 25], the DC50 under setting [3] was above 30 nM. Also, where the note is “BRM degradation, SW1573 cells, when tested at the top concentration of between 0.3 and 10 μM, read-out: Dmax (%) (% degraded)”, the Dmax is above 75%. `CC(C)[C@@H](C(=O)N1C[C@H](O)C[C@H]1C(=O)N[C@@H](C)c1ccc(C2(F)CC2)cc1)c1cc(N2CCC(CN3CCC(O[C@H]4C[C@H](Oc5cc(N6C7CCC6CN(c6cc(-c8ccccc8O)nnc6N)C7)ccn5)C4)CC3)CC2)no1` [compound 713, (2S,4R)-1-((2R)-2-(3-(4-((4-((1r,3r)-3-((4-(3-(3-amino-6-(2-hydroxyphenyl)pyridazin-4-yl)-3,8-diazabicyclo[3.2.1]octan-8-yl)pyridin-2-yl)oxy)cyclobutoxy)piperidin-1-yl)methyl)piperidin-1-yl)isoxazol-5-yl)-3-methylbutanoyl)-N-((S)-1-(4-(1-fluorocyclopropyl)phenyl)ethyl)-4-hydroxypyrrolidine-2-carboxamide]: under setting [3], the DC50 lay in the range of 2.5 to 10 nM. Also, under setting [4], the maximal degradation (Dmax) is above 75%. Take `Cc1cc([C@H](C(=O)N2C[C@H](O)C[C@H]2C(=O)N[C@@H](C)c2ccc(-c3scnc3C)cc2)[C@H](C)COCCCCN2C3CCC2CN(c2cc(-c4ccccc4O)nnc2N)C3)on1` [compound 425, (2S,4R)-1-((2R,3S)-4-(4-(3-(3-amino-6-(2-hydroxyphenyl)pyridazin-4-yl)-3,8-diazabicyclo[3.2.1]octan-8-yl)butoxy)-3-methyl-2-(3-methylisoxazol-5-yl)butanoyl)-4-hydroxy-N-((S)-1-(4-(4-methylthiazol-5-yl)phenyl)ethyl)pyrrolidine-2-carboxamide]: under setting [2], the half-maximal degradation concentration (DC50) was above 30 nM.

Regarding `Cc1ncsc1-c1ccc([C@@H](COCC2CCOCC2)NC(=O)[C@@H]2C[C@@H](O)CN2C(=O)[C@@H](c2cc(OCCN3CCN(CCOc4cc(N5C6CCC5CN(c5cc(-c7ccccc7O)nnc5N)C6)ccn4)CC3)no2)C(C)C)cc1` [compound 273, (2S,4R)-1-((2R)-2-(3-(2-(4-(2-((4-(3-(3-amino-6-(2-hydroxyphenyl)pyridazin-4-yl)-3,8-diazabicyclo[3.2.1]octan-8-yl)pyridin-2-yl)oxy)ethyl)piperazin-1-yl)ethoxy)isoxazol-5-yl)-3-methylbutanoyl)-4-hydroxy-N-((S)-1-(4-(4-methylthiazol-5-yl)phenyl)-2-((tetrahydro-2H-pyran-4-yl)methoxy)ethyl)pyrrolidine-2-carboxamide], under setting [3], the DC50 is below 2.5 nM. Under setting [5], the maximal degradation (Dmax) was above 75%. Regarding `Cc1ncsc1-c1ccc([C@H](C)NC(=O)[C@@H]2C[C@@H](O)CN2C(=O)[C@H](c2cc(OCC[C@@H]3CCN(C[C@H]4C[C@H](Oc5cc(N6C7CCC6CN(c6cc(-c8ccccc8O)nnc6N)C7)ccn5)C4)[C@H](C)C3)no2)C(C)C)cc1` (racemic) [compound 579, (2S,4R)-1-((2S)-2-(3-(2-((2R,4R)-1-(((1r,3R)-3-((4-(3-(3-amino-6-(2-hydroxyphenyl)pyridazin-4-yl)-3,8-diazabicyclo[3.2.1]octan-8-yl)pyridin-2-yl)oxy)cyclobutyl)methyl)-2-methylpiperidin-4-yl)ethoxy)isoxazol-5-yl)-3-methylbutanoyl)-4-hydroxy-N-((S)-1-(4-(4-methylthiazol-5-yl)phenyl)ethyl)pyrrolidine-2-carboxamide], the Dmax (BRM degradation, SW1573 cells, Table 2D, read-out: **Dmax (%) (% degraded)) was above 75%. For the setting “BRM degradation, SW1573 cells, Table 2D, read-out: *DC50”, the 50% degradation concentration (DC50) is below 2.5 nM. In the case of `Cc1ncsc1-c1ccc([C@H](C)NC(=O)[C@@H]2C[C@@H](O)CN2C(=O)[C@@H](c2cc(N3CCC(CN4CCC(O[C@H]5C[C@H](Oc6cc(N7CCOC8(CCN(c9cc(-c%10ccccc%10O)nnc9N)CC8)C7)ccn6)C5)CC4)CC3)no2)C(C)C)cc1` [compound 716, (2S,4R)-1-((R)-2-(3-(4-((4-((1r,3r)-3-((4-(9-(3-amino-6-(2-hydroxyphenyl)pyridazin-4-yl)-1-oxa-4,9-diazaspiro[5.5]undecan-4-yl)pyridin-2-yl)oxy)cyclobutoxy)piperidin-1-yl)methyl)piperidin-1-yl)isoxazol-5-yl)-3-methylbutanoyl)-4-hydroxy-N-((S)-1-(4-(4-methylthiazol-5-yl)phenyl)ethyl)pyrrolidine-2-carboxamide], under setting [3], the DC50 was below 2.5 nM. In addition, the Dmax under setting [4] is above 75%. Turning to `Cc1ncsc1-c1ccc([C@H](C)NC(=O)[C@@H]2C[C@@H](O)CN2C(=O)C(c2cc(OCCN3[C@H](C)C[C@H](O[C@H]4C[C@H](Oc5cc(N6C7CCC6CN(c6cc(-c8ccccc8O)nnc6N)C7)ccn5)C4)C[C@@H]3C)no2)C(C)C)cn1` (stereo partly drawn) [compound 448, (2S,4R)-1-(2-(3-(2-((2S,4S,6R)-4-((1r,3R)-3-((4-(3-(3-amino-6-(2-hydroxyphenyl)pyridazin-4-yl)-3,8-diazabicyclo[3.2.1]octan-8-yl)pyridin-2-yl)oxy)cyclobutoxy)-2,6-dimethylpiperidin-1-yl)ethoxy)isoxazol-5-yl)-3-methylbutanoyl)-4-hydroxy-N-((S)-1-(6-(4-methylthiazol-5-yl)pyridin-3-yl)ethyl)pyrrolidine-2-carboxamide], the Dmax under setting [1] was above 75%. Further, under “target protein degradation, read-out: BRM DC50”, the DC50 was below 2.5 nM. For the compound `Cc1ncsc1-c1ccc([C@H](C)NC(=O)[C@@H]2C[C@@H](O)CN2C(=O)C(c2cc(OCCn3cc(C(C)n4cc(-c5cc(-c6ccccc6O)nnc5N)cn4)ccc3=O)no2)C(C)C)cc1` (stereo in doubt) [compound 162, (2S,4R)-1-((2R)-2-(3-(2-(5-(1-(4-(3-amino-6-(2-hydroxyphenyl)pyridazin-4-yl)-1H-pyrazol-1-yl)ethyl)-2-oxopyridin-1(2H)-yl)ethoxy)isoxazol-5-yl)-3-methylbutanoyl)-4-hydroxy-N-((S)-1-(4-(4-methylthiazol-5-yl)phenyl)ethyl)pyrrolidine-2-carboxamide], under setting [3], the DC50 is above 30 nM. In addition, the “Dmax (%) (% degraded)” value (BRM degradation, SW1573 cells, tested at the top concentration of between 0.3 and 10 μM) was “A (A > 75)”.

`Cc1ncsc1-c1ccc([C@H](CCC#N)NC(=O)[C@@H]2C[C@@H](O)CN2C(=O)[C@@H](c2cc(OCCN3CCC(O[C@H]4C[C@H](Oc5cc(N6C7CCC6CN(c6cc(-c8ccccc8O)nnc6N)C7)ccn5)C4)CC3)no2)C(C)C)cc1` [compound 533, (2S,4R)-1-((2R)-2-(3-(2-(4-((1r,3R)-3-((4-(3-(3-amino-6-(2-hydroxyphenyl)pyridazin-4-yl)-3,8-diazabicyclo[3.2.1]octan-8-yl)pyridin-2-yl)oxy)cyclobutoxy)piperidin-1-yl)ethoxy)isoxazol-5-yl)-3-methylbutanoyl)-N-((S)-3-cyano-1-(4-(4-methylthiazol-5-yl)phenyl)propyl)-4-hydroxypyrrolidine-2-carboxamide]: the 50% degradation concentration (DC50) (BRM degradation, read-out: BRM DC50) is below 2.5 nM. Besides, the Dmax under setting [1] is above 75%. With `COc1cc(-c2scnc2C)ccc1CNC(=O)[C@@H]1C[C@@H](O)CN1C(=O)[C@@H](c1cc(OCCN2CCC(O[C@H]3C[C@H](Oc4cc(N5C6CCC5CN(c5cc(-c7ccccc7O)nnc5N)C6)ccn4)C3)CC2)no1)C(C)C` [compound 215, (2S,4R)-1-((2R)-2-(3-(2-(4-((1r,3R)-3-((4-(3-(3-amino-6-(2-hydroxyphenyl)pyridazin-4-yl)-3,8-diazabicyclo[3.2.1]octan-8-yl)pyridin-2-yl)oxy)cyclobutoxy)piperidin-1-yl)ethoxy)isoxazol-5-yl)-3-methylbutanoyl)-4-hydroxy-N-(2-methoxy-4-(4-methylthiazol-5-yl)benzyl)pyrrolidine-2-carboxamide], under setting [3], the DC50 is below 2.5 nM. Moreover, the Dmax under setting [5] is above 75%.

For the compound `Cc1ncsc1-c1ccc([C@H](C)NC(=O)[C@@H]2C[C@@H](O)CN2C(=O)[C@H](c2cc(N3CCC(C(C)N4CCC(O[C@H]5C[C@H](Oc6cc(N7C8CCC7CN(c7cc(-c9ccccc9O)nnc7N)C8)ccn6)C5)CC4)CC3)no2)C(C)C)cc1` (stereo partly drawn) [compound 643, (2S,4R)-1-((2S)-2-(3-(4-(1-(4-((1r,3r)-3-((4-(3-(3-amino-6-(2-hydroxyphenyl)pyridazin-4-yl)-3,8-diazabicyclo[3.2.1]octan-8-yl)pyridin-2-yl)oxy)cyclobutoxy)piperidin-1-yl)ethyl)piperidin-1-yl)isoxazol-5-yl)-3-methylbutanoyl)-4-hydroxy-N-((S)-1-(4-(4-methylthiazol-5-yl)phenyl)ethyl)pyrrolidine-2-carboxamide], the DC50 under setting [3] was below 2.5 nM. Under setting [4], the Dmax was above 75%.

As a reminder, the Dmax is the greatest extent of degradation seen. The term DC50 denotes the concentration at which degradation of the target reaches its halfway point.

For the origin of these results see US12539292B2, “BRM targeting compounds and associated methods of use” (Arvinas Operations, Inc., priority 2018, dated 2026).
